{"source": "patent US20190351012A1", "about": "“TARGETING OF INTERFERON-STIMULATED GENE EXPRESSION TO TREAT INTERFERONOPATHIES” (New York University, priority 2018, published 2019)", "key": {"[1]": {"test_system": "ISG54 promoter and G6TI control templates", "assay": "In vitro transcription run-off assay with nuclear extracts and recombinant ISGF3", "type": "biochemical, human", "conditions": "TSA included in run-off reaction, naked DNA templates", "source_text": "(§1) FIG. 2. […] (A) Nuclear extracts from HEK293T cells expressing activated recombinant ISGF3 (STAT1, STAT2, IRF9 and JAK1) or transfected with vector (Ctl) were programmed with G6TI-CAT (G6TI) or p107 (ISG54) templates. Radiolabeled RNA transcripts were resolved by polyacrylamide-urea gel electrophoresis. Arrow and arrowhead indicate position of the transcripts from G6TI-CAT and p107, respectively. (B) HeLa cells were either left untreated or treated with IFN-α in the absence or presence of TSA (TSA in vivo) before nuclei were isolated for run-on transcription. Where indicated, TSA was added to the elongation reaction in vitro (TSA in vitro). Specific signals from γ-actin, ISG15, ISG56, 6-16, 9-27, IRF9 and GBP transcription were quantified following filter hybridization and normalized to the signal for GAPDH, arbitrarily set to 100. Representative data from three independent experiments are shown. FS2 human diploid fibroblasts were starved for 72 h before being treated with IFN-α for 7.5 h in the absence or presence of TSA. Mononucleosomal DNA fraction was purified from MNase-digested nuclei and analyzed for nucleosome positions by PCR quantitation of protected fragments. All samples were quantified by real-time PCR, except the—53—+1 ISG54 fragment, which was quantified by gel electrophoresis (C). […]"}, "[2]": {"test_system": "ISG54 promoter nucleosomes in FS2 human diploid fibroblasts", "assay": "MNase-PCR nucleosome mapping of the ISG54 promoter in FS2 fibroblasts", "type": "cell-based", "source_text": "as §1"}}}
{"compound": "CC(/C=C/C(=O)NO)=C\\[C@@H](C)C(=O)c1ccc(N(C)C)cc1", "note": "[TSA, Trichostatin A]", "values": [{"measurement": "inhibition of basal and ISGF3-dependent transcription in vitro", "setting": "[1]", "result": "neither basal nor ISGF3-dependent transcription was inhibited"}, {"measurement": "nuclease sensitivity of segments around TATA box and initiation site", "setting": "[2]; MNase", "result": "minimally affected"}, {"measurement": "IFN-induced increase of nuclease sensitivity of −92 to −33 ISRE segment", "setting": "[2]; co-treatment with IFN", "result": "not prevented"}]}
